Active and inactive are the calls of the source. The rule behind the calls is not given here.
Assays:
[1] = Metabolic stability in human liver microsomes assessed as half life at 1 uM preincubated for 5 mins followed by NADPH addition and measured upto 60 min by LC-MS/MS analysis; assay type: ADME, Microsome; conditions: time < 65 min
[2] = Metabolic stability in human liver microsomes assessed as parent compound remaining at 1 uM measured upto 60 min in presence of NADPH by LC-MS/MS analysis; assay type: ADME, Microsome; conditions: read-out: Stability
[3] = Metabolic stability in mouse liver microsomes assessed as half life at 1 uM preincubated for 5 mins followed by NADPH addition and measured upto 60 min by LC-MS/MS analysis; assay type: ADME, Microsome; conditions: time < 65 min
[4] = Metabolic stability in mouse liver microsomes assessed as intrinsic clearance at 1 uM preincubated for 5 mins followed by NADPH addition and measured upto 60 min by LC-MS/MS analysis; assay type: ADME, Microsome; conditions: time < 65 min, read-out: CLH
[5] = Metabolic stability in mouse liver microsomes assessed as parent compound remaining at 1 uM measured upto 60 min in presence of NADPH by LC-MS/MS analysis; assay type: ADME, Microsome; conditions: read-out: Stability
Hepatitis B virus [6] = assay: Antiviral activity against HBV infected in human HepG2.2.15 cells assessed as inhibition of HBV DNA incubated for 6 days with replacement of fresh media for every 72 hrs by real-time qPCR analysis; assay type: functional, organism-based
Hepatitis B virus [7] = assay: Antiviral activity against HBV infected in human HepG2.2.15 cells assessed as inhibition of HBsAg level incubated for 6 days with replacement of fresh media for every 72 hrs by real-time qPCR analysis; assay type: functional, organism-based
[8] = AUC (0 to t) in ICR mouse at 1 mg/kg, iv by UPLC-MS/MS analysis; assay type: ADME, organism-based; design: dose 1 mg/kg, route iv; conditions: in vivo
[9] = AUC (0 to infinity) in ICR mouse at 1 mg/kg, iv by UPLC-MS/MS analysis; assay type: ADME, organism-based; design: dose 1 mg/kg, route iv; conditions: in vivo
[10] = Half life in ICR mouse at 1 mg/kg, iv by UPLC-MS/MS analysis; assay type: ADME, organism-based; conditions: in vivo
[11] = Volume of distribution at steady state in ICR mouse at 1 mg/kg, iv by UPLC-MS/MS analysis; assay type: ADME, organism-based; conditions: in vivo, read-out: Vdss
[12] = Clearance in ICR mouse at 1 mg/kg, iv by UPLC-MS/MS analysis; assay type: ADME, organism-based; conditions: in vivo
[13] = Bioavailability in ICR mouse at 1 mg/kg, iv by UPLC-MS/MS analysis; assay type: ADME, organism-based; conditions: in vivo
[14] = AUC (0 to t) in ICR mouse at 10 mg/kg, IG by UPLC-MS/MS analysis; assay type: ADME, organism-based; design: dose 10 mg/kg, route ig; conditions: in vivo, po
[15] = AUC (0 to infinity) in ICR mouse at 10 mg/kg, IG by UPLC-MS/MS analysis; assay type: ADME, organism-based; design: dose 10 mg/kg, route ig; conditions: in vivo, po
[16] = Half life in ICR mouse at 10 mg/kg, IG by UPLC-MS/MS analysis; assay type: ADME, organism-based; conditions: in vivo, po
[17] = Tmax in ICR mouse at 10 mg/kg, IG by UPLC-MS/MS analysis; assay type: ADME, organism-based; conditions: in vivo, po
[18] = Cmax in ICR mouse at 10 mg/kg, IG by UPLC-MS/MS analysis; assay type: ADME, organism-based; design: dose 10 mg/kg, route ig; conditions: in vivo, po
[19] = Metabolic stability in human liver microsomes assessed as intrinsic clearance at 1 uM preincubated for 5 mins followed by NADPH addition and measured upto 60 min by LC-MS/MS analysis; assay type: ADME, Microsome; conditions: time < 65 min, read-out: CLH
Hepatitis B virus [20] = assay: In vivo antiviral activity against HBV infected in uPA/SCID mouse assessed as reduction in serum HBsAg level at 10 mg/kg, po administered twice daily for 21 days and measured upto 35 days; assay type: functional; conditions: time <= 35 day
HepG2 2.2.15 = assay: Cytotoxicity against human HepG2.2.15 cells by CCK-8 method; assay type: functional
Hepatitis B virus [21] = assay: In vivo antiviral activity against HBV infected in uPA/SCID mouse assessed as reduction in serum HBsAg level at 10 mg/kg, po administered twice daily for 28 days; assay type: functional, organism-based; conditions: time 28.0 day

Structure (SMILES)	half-life at 1 µM [1]	remaining at 1 h, 1 µM [2]	EC50 (Hepatitis B virus [6])	EC50 (Hepatitis B virus [7])	further results
CN(C)c1cc(F)nc(N2[C@H]3CC[C@@H]2c2cnc(-c4ncccn4)nc2C3)c1	> 3.33 h	86.2%	34 nM	41 nM	half-life at 1 µM [3]: 1.63 h; CLint scaled at 1 µM [4]: 56.2 mL/min/kg; remaining at 1 h, 1 µM [5]: 63.9%
COCCOc1cc(F)nc(N2[C@H]3CC[C@@H]2c2cnc(-c4ncccn4)nc2C3)c1			44 nM	73 nM	
Fc1cc(N2CC(F)C2)cc(N2[C@@H]3CCC[C@H]2c2cnc(-c4ncccn4)nc2C3)n1 (single isomer, unassigned)			7 nM	12 nM	
COCCN(C)c1cc(F)nc(N2[C@H]3CC[C@@H]2c2cnc(-c4ncccn4)nc2C3)c1			21 nM	31 nM	
COC1CN(c2cc(F)nc(N3[C@@H]4CCC[C@H]3c3cnc(-c5ncccn5)nc3C4)c2)C1 (single isomer, unassigned)	> 3.33 h	92.3%	16 nM	16 nM	half-life at 1 µM [3]: > 3.33 h; remaining at 1 h, 1 µM [5]: 80.4%
Fc1cc(N2CCOCC2)cc(N2[C@H]3CC[C@@H]2c2cnc(-c4ncccn4)nc2C3)n1			39 nM	54 nM	
CN(C)c1cc(N2[C@H]3CC[C@@H]2c2cnc(-c4ncccn4)nc2C3)cc(F)n1			89 nM	2450 nM	
COC1CCN(c2cc(F)nc(N3[C@H]4CC[C@@H]3c3cnc(-c5ncccn5)nc3C4)c2)C1 (some centres undefined)			189 nM	193 nM	
COCCCOc1cc2c(cc1OC)-c1cc(=O)c(C(=O)O)cn1[C@H](C(C)C)C2			1 nM	6 nM	AUC(0-t) [8]: 346 ng·h/mL; AUC(0-inf) [9]: 349 ng·h/mL; half-life [10]: 0.653 h; Vd [11]: 2.7 L/kg; clearance [12]: 47.8 mL/min/kg; bioavailability [13]: 88.6%; AUC(0-t) [14]: 3060 ng·h/mL; AUC(0-inf) [15]: 3080 ng·h/mL; half-life [16]: 1.12 h; Tmax [17]: 0.25 h; Cmax [18]: 1100 ng/mL
COCCN(C)c1cc(F)nc(N2C[C@H]3CC[C@@H]2c2cnc(-c4ncccn4)nc23)c1			154 nM	244 nM	
COC1CN(c2cc(F)nc(N3[C@H]4CC[C@@H]3c3cnc(-c5ncccn5)nc3C4)c2)C1	> 3.33 h	105%	31 nM	116 nM	
COc1cc(N2[C@H]3CC[C@@H]2c2cnc(-c4ncccn4)nc2C3)cc(F)c1F	> 3.33 h	99.1%	169 nM	443 nM	
COCCNc1cc(F)nc(N2[C@H]3CC[C@@H]2c2cnc(-c4ncccn4)nc2C3)c1			111 nM	94 nM	
CN(C)c1cc(F)nc(N2[C@@H]3CCC[C@H]2c2cnc(-c4ccccn4)nc2C3)c1 (single isomer, unassigned)			> 10000 nM	> 10000 nM	
CN(C)c1cc(F)nc(N2[C@@H]3CCC[C@H]2c2cnc(-c4ncccn4)nc2C3)c1 (single isomer, unassigned)	1.93 h	69%	2 nM	14 nM	AUC(0-t) [8]: 2480 ng·h/mL; CLint scaled at 1 µM [19]: 10.7 mL/min/kg; half-life at 1 µM [3]: 1.12 h; CLint scaled at 1 µM [4]: 81.4 mL/min/kg; remaining at 1 h, 1 µM [5]: 52.4%; AUC(0-inf) [9]: 2490 ng·h/mL; half-life [10]: 1.65 h; Vd [11]: 0.96 L/kg; clearance [12]: 6.67 mL/min/kg; bioavailability [13]: 125%; AUC(0-t) [14]: 31000 ng·h/mL; AUC(0-inf) [15]: 31900 ng·h/mL; half-life [16]: 1.95 h; Tmax [17]: 0.5 h; Cmax [18]: 9900 ng/mL; Activity (Hepatitis B virus [20]): 0.74 log10/ml
Fc1cc(N2CC(F)C2)cc(N2[C@H]3CC[C@@H]2c2cnc(-c4ncccn4)nc2C3)n1	> 3.33 h	99.7%	18 nM	44 nM	AUC(0-t) [8]: 3410 ng·h/mL; CC50 (HepG2 2.2.15): > 100000 nM; AUC(0-inf) [9]: 3410 ng·h/mL; half-life [10]: 1.16 h; Vd [11]: 0.49 L/kg; clearance [12]: 4.88 mL/min/kg; bioavailability [13]: 80.2%; AUC(0-t) [14]: 27400 ng·h/mL; AUC(0-inf) [15]: 27400 ng·h/mL; half-life [16]: 1.23 h; Tmax [17]: 0.25 h; Cmax [18]: 9580 ng/mL; Activity (Hepatitis B virus [20]): 1.08 log10/ml; Activity (Hepatitis B virus [21]): Active
Fc1cc(NCC2CC2)cc(N2[C@H]3CC[C@@H]2c2cnc(-c4ncccn4)nc2C3)n1			105 nM	106 nM	
COCCN(C)c1cc(F)nc(N2C[C@@H]3CC[C@H]2c2cnc(-c4ncccn4)nc23)c1			1090 nM	> 10000 nM	
CS(=O)(=O)N1CCN(c2cc(F)nc(N3[C@@H]4CCC[C@H]3c3cnc(-c5ncccn5)nc3C4)c2)CC1 (single isomer, unassigned)	> 3.33 h	94%	75 nM	25 nM	half-life at 1 µM [3]: > 3.33 h; remaining at 1 h, 1 µM [5]: 85.7%
Fc1cc(N2CC(F)C2)cc(N2[C@@H]3CCC[C@H]2c2cnc(-c4ccccn4)nc2C3)n1 (single isomer, unassigned)			> 10000 nM	> 10000 nM	
COc1cc(F)nc(N2[C@@H]3CCC[C@H]2c2cnc(-c4ncccn4)nc2C3)c1 (single isomer, unassigned)			15 nM	26 nM	

Reference: ChEMBL document CHEMBL5370548, “Discovery, optimization and biological evaluation of novel HBsAg production inhibitors” (Eur J Med Chem, 2023)
